assay: Log of liquid dish neat product liquid-air partition coefficient; type: physicochemical; settings: not given

Row | SMILES | Comment Code: Log of liquid dish neat product liquid-air partition coefficient
1 | CC1C(=O)CC2(C)CCCC(C)(C)C23CC13 (stereo not shown) [Material 804] | K (Log of liquid dish neat product liquid-air partition coefficient greater than or equal to 7)
2 | Cc1n[nH]cc1-c1ccccc1 [Material 808] | K (Log of liquid dish neat product liquid-air partition coefficient greater than or equal to 7)
3 | COc1cc(C)cc(O)c1 [Material 811] | K (Log of liquid dish neat product liquid-air partition coefficient greater than or equal to 7)
4 | C=C(C=O)C(C)CCC=C(C)C (stereo not shown) [Material 819] | K (Log of liquid dish neat product liquid-air partition coefficient greater than or equal to 7)
5 | CC(=O)OCCc1ccccc1 [Material 832] | K (Log of liquid dish neat product liquid-air partition coefficient greater than or equal to 7)
6 | CCC(=O)OCCc1ccccc1 [Material 835] | K (Log of liquid dish neat product liquid-air partition coefficient greater than or equal to 7)
7 | CCCCCCCC1(C)OCC(C)O1 (stereo not shown) [Material 838] | K (Log of liquid dish neat product liquid-air partition coefficient greater than or equal to 7)
8 | CCC(C)c1nccnc1OC (stereo not shown) [Material 845] | K (Log of liquid dish neat product liquid-air partition coefficient greater than or equal to 7)
9 | CNC(=O)C(C)(C(C)C)C(C)C [Material 846] | K (Log of liquid dish neat product liquid-air partition coefficient greater than or equal to 7)
10 | CC1=C2CC(C(C)(C)O)CCC2(C)CCC1 (stereo not shown) [Material 872] | K (Log of liquid dish neat product liquid-air partition coefficient greater than or equal to 7)
11 | CC=CC(=O)C1C(C)=CCCC1(C)C (stereo not shown) [Material 880] | K (Log of liquid dish neat product liquid-air partition coefficient greater than or equal to 7)
12 | C=C[C@](C)(O)CCC=C(C)C [Material 888] | K (Log of liquid dish neat product liquid-air partition coefficient greater than or equal to 7)
13 | C=CCOC(=O)COC1CCCCC1 [Material 918] | K (Log of liquid dish neat product liquid-air partition coefficient greater than or equal to 7)

same assay, conditions: code letters K/L of the Comment Code

Row | SMILES | Log of liquid dish neat product liquid-air partition coefficient (Comment Code)
14 | COc1ccc(CCC(C)=O)cc1 [Material 803] | K (Log of liquid dish neat product liquid-air partition coefficient greater than or equal to 7)
15 | CC1C(=O)CC2(C)CCCC(C)(C)C23CC13 (stereo not shown) [Material 804] | K (Log of liquid dish neat product liquid-air partition coefficient greater than or equal to 7)
16 | CCC=C1OC(=O)c2ccccc21 [Material 805] | K (Log of liquid dish neat product liquid-air partition coefficient greater than or equal to 7)
17 | CCCCCCCCCC=CC=O [Material 806] | K (Log of liquid dish neat product liquid-air partition coefficient greater than or equal to 7)
18 | CC(CC=O)CCc1ccccc1 (stereo not shown) [Material 807] | K (Log of liquid dish neat product liquid-air partition coefficient greater than or equal to 7)
19 | CC(C)c1ccc(CCC=O)cc1 [Material 826] | K (Log of liquid dish neat product liquid-air partition coefficient greater than or equal to 7)
20 | CCCCCCCCC=CC#N [Material 827] | K (Log of liquid dish neat product liquid-air partition coefficient greater than or equal to 7)
21 | CCCCCCCCC=CC=O [Material 828] | K (Log of liquid dish neat product liquid-air partition coefficient greater than or equal to 7)
22 | CCCC(=O)OCCc1ccccc1 [Material 831] | K (Log of liquid dish neat product liquid-air partition coefficient greater than or equal to 7)
23 | OCCOc1ccccc1 [Material 834] | K (Log of liquid dish neat product liquid-air partition coefficient greater than or equal to 7)
24 | CC(C)Cc1ccc2ccccc2n1 [Material 849] | K (Log of liquid dish neat product liquid-air partition coefficient greater than or equal to 7)
25 | CCC=CCCC=CCO [Material 865] | K (Log of liquid dish neat product liquid-air partition coefficient greater than or equal to 7)
26 | CCCCCCCCCCO [Material 868] | K (Log of liquid dish neat product liquid-air partition coefficient greater than or equal to 7)
27 | C=CCCCCCCCCCO [Material 870] | K (Log of liquid dish neat product liquid-air partition coefficient greater than or equal to 7)
28 | C=CCCCCCCCCC=O [Material 871] | K (Log of liquid dish neat product liquid-air partition coefficient greater than or equal to 7)
29 | CC1=C2CC(C(C)(C)O)CCC2(C)CCC1 (stereo not shown) [Material 872] | K (Log of liquid dish neat product liquid-air partition coefficient greater than or equal to 7)
30 | CC(=O)OC(C)CCC=C(C)CCC=C(C)C (stereo not shown) [Material 881] | K (Log of liquid dish neat product liquid-air partition coefficient greater than or equal to 7)
31 | CCCCCCCC/C=C\CC=O [Material 884] | K (Log of liquid dish neat product liquid-air partition coefficient greater than or equal to 7)
32 | CC(=O)OC(C)CC/C=C(\C)CCC=C(C)C (stereo not shown) [Material 890] | K (Log of liquid dish neat product liquid-air partition coefficient greater than or equal to 7)
33 | C/C(=C/C#N)CCc1ccccc1 [Material 892] | K (Log of liquid dish neat product liquid-air partition coefficient greater than or equal to 7)
34 | CC1CCC2(O1)C(C)(C)CCCC2(C)O (stereo not shown) [Material 893] | K (Log of liquid dish neat product liquid-air partition coefficient greater than or equal to 7)
35 | C/C(=C\C#N)CCc1ccccc1 [Material 894] | K (Log of liquid dish neat product liquid-air partition coefficient greater than or equal to 7)
36 | CC(=CCC1CC=C(C)C1(C)C)CO (stereo not shown) [Material 908] | K (Log of liquid dish neat product liquid-air partition coefficient greater than or equal to 7)
37 | CC1=CC2CC(C3OCCO3)C1CC2C(C)C (stereo not shown) [Material 912] | K (Log of liquid dish neat product liquid-air partition coefficient greater than or equal to 7)
38 | C=C1CCCC(C)(C)C1C=C(C)C(C)=O (stereo not shown) [Material 913] | K (Log of liquid dish neat product liquid-air partition coefficient greater than or equal to 7)
39 | CC(C)c1cccc(C(C)CC=O)c1 (stereo not shown) [Material 914] | K (Log of liquid dish neat product liquid-air partition coefficient greater than or equal to 7)
40 | C=CC(C)(CCC=C(C)C)OC(C)OCC (stereo not shown) [Material 916] | K (Log of liquid dish neat product liquid-air partition coefficient greater than or equal to 7)

From patent US20170333591A9, “ABSORBENT ARTICLE COMPRISING MALODOR REDUCTION COMPOSITIONS” (The Procter & Gamble Company, priority 2014, published 2017)
